# PMC6609034, “Unraveling the role of the secretor antigen in human rotavirus attachment to histo-blood group antigens” (PLoS Pathogens, 2019)
# What was measured:
# [1] = test system: VP8* P[8]c binding to the H1 antigen; assay: Binding blocking assay, immobilized H1 antigen; design: species or system human rotavirus; conditions: soluble sugar at 20 mM
# Description: (§1) To confirm the binding of the VP8* from the P[8] genotype to the H type-1 precursor LNB, a blocking assay was performed using soluble LNB and its related disaccharide galacto-N-biose (Gal-β-1,3-GalNAc; GNB) produced and purified in our laboratory as previously described.
# (§2) Streptavidin microtiter plates were coated with biotinylated H type-1 antigen or LNB at 2 μg/ml with water and incubated for 1 hour at 37°C, followed by an overnight incubation at 4°C. Blocking assays were performed in parallel, using glass tubes containing the P[8]c and P[8]Wa VP8* protein at their EC50 for each ligand and 20 mM of each of the soluble disaccharides (LNB and GNB) and monosaccharides (D-galactose, GlcNAc and GalNAc). A positive binding control without sugar was also included. The tubes containing the mixes of VP8* with sugars were maintained 1 hour at 37°C, followed by an overnight incubation at 4°C. The next day the coated streptavidin plates were washed with PBS-T, the VP8*-sugar solutions were added to the plates and incubated during 4 hours at 4°C. The plates were washed three times with PBS-T and detection of the interactions was performed as described above. The results are presented as the percentage (%) of binding of each condition compared to the binding of the positive binding control (without blocking sugar). All experiments were performed in triplicate.
# [2] = test system: VP8* P[11]; assay: ELISA-like binding assay to biotinylated HBGAs; design: species or system rotavirus; conditions: biotinylated PAA glycan 2 μg/ml, VP8* 10 μg/ml
# Description: (§3) A panel of biotinylated sugar antigens including Le^a, Le^b, Le^c (lacto-N-biose; LNB), H type-1, H type-2 and blood group A and B trisaccharides were purchased from Glyconz (Fig 1 and S1 Table). These glycans are biotinylated neoglyconjugates of a poly[N-(2-hydroxyethyl)acrylamide] (PAA) with a size from 30 to 50 KDa. This forms a flexible polymer ideal for a multivalent presentation of glycans. Immobilized streptavidin F96 black plates (Nunc) were coated with the biotinylated oligosaccharides (2 μg/ml) in milli-Q water and incubated during 1 hour at 37°C. After functionalization the plates were washed once with PBS containing 0.05% of Tween 20 (PBS-T) and the VP8* proteins were added (10 μg/ml) and incubated at 4°C overnight. After three washes with PBS-T, a rabbit polyclonal antibody anti GST (1:1,000) (Abcam) was added and the plates were incubated one hour at 37°C. Then, the plates were washed three times with PBS-T and incubated for 1 h at 37°C with 1:10,000 dilution of horseradish peroxidase (HRP)-conjugated goat anti-rabbit (Abcam). After three washes with PBS-T, the binding was detected using QuantaBlue reagent (ThermoFisher) kit, as recommended by the manufacturer. Fluorescence units were registered by a MultiScan microplate reader. All the binding assays were performed in triplicate.
# [3] = test system: VP8* P[8]c binding to LNB; assay: Binding blocking assay, immobilized LNB; design: species or system human rotavirus; conditions: soluble sugar at 20 mM
# Description: as §1, §2
# [4] = test system: VP8* P[14]; assay: ELISA-like binding assay to biotinylated HBGAs; design: species or system human rotavirus; conditions: biotinylated PAA glycan 2 μg/ml, VP8* 10 μg/ml
# Description: as §3
# [5] = test system: VP8* P[8]; assay: ELISA-like binding assay to biotinylated HBGAs; design: species or system human rotavirus; conditions: biotinylated PAA glycan 2 μg/ml, VP8* 10 μg/ml
# Description: as §3
# [6] = test system: VP8* P[9]; assay: ELISA-like binding assay to biotinylated HBGAs; design: species or system human rotavirus; conditions: biotinylated PAA glycan 2 μg/ml, VP8* 10 μg/ml
# Description: as §3
# [7] = test system: VP8* P[25]; assay: ELISA-like binding assay to biotinylated HBGAs; design: species or system rotavirus; conditions: biotinylated PAA glycan 2 μg/ml, VP8* 10 μg/ml
# Description: as §3
# [8] = test system: VP8* P[4]; assay: ELISA-like binding assay to biotinylated HBGAs; design: species or system human rotavirus; conditions: biotinylated PAA glycan 2 μg/ml, VP8* 10 μg/ml
# Description: as §3
compound,measurement,setting,value
C[C@H](O)[C@@H](O)[C@@H](O)[C@H](O)C=O [L-fucose],effect on the binding of VP8* to the H1 antigen,[1],significantly increased the binding
"CC(=O)NC1C(O)OC(CO)C(OC2OC(CO)C(O)C(O)C2OC2OC(C)C(O)C(O)C2O)C1O (stereo not drawn) [H2, Fuc-α1,2-Gal-β1,4-GlcNAc]",binding (ELISA-like),[2],recognized
"CC(=O)N[C@H]1C(O)O[C@H](CO)[C@H](O)[C@@H]1O[C@@H]1O[C@H](CO)[C@H](O)[C@H](O)[C@H]1O (stereo partly drawn) [GNB, Gal-β1,3-GalNAc]",reduction in the binding to the H1 antigen,[1],30.1%
same,reduction of the binding of VP8* P[8]c to LNB,[3],44.1%
"GlcNAc-α1,3-(Fucα1,2)-Gal [Atri]",binding (ELISA-like),[4],recognized
same,binding (ELISA-like),[5],low binding
same,binding (ELISA-like),[6],recognized
same,binding (ELISA-like),[7],recognized
"Fuc-α1,2-Gal-β1,3-[Fuc-α1,4-]GlcNAc [Lewis^b]",binding (ELISA-like),[8],very low or absence of binding
same,binding (ELISA-like),[5],very low or absence of binding
O=C[C@H](O)[C@@H](O)[C@@H](O)[C@H](O)CO [D-galactose],reduction in the binding to the H1 antigen,[1],14.7%
